Experimental data published in ChEMBL document CHEMBL1201862, “PubChem BioAssay data set” (2004).
Calls of active or inactive are those of the source.

What was measured:
ORF 73 = ORF 73 (Human herpesvirus 8, UniProt O40947); assay: inhibitors of C-LANA binding to LBS DNA, dose response, biochemical, fluorescence polarization, cherry-picked samples (AID 504725); design: species or system Human gammaherpesvirus 8;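 note: fluorescence polarization of a labeled DNA duplex reporting LANA DNA binding; potency is for inhibitors that block LANA binding to the DNA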
Sequence of ORF 73 (O40947 whole entry): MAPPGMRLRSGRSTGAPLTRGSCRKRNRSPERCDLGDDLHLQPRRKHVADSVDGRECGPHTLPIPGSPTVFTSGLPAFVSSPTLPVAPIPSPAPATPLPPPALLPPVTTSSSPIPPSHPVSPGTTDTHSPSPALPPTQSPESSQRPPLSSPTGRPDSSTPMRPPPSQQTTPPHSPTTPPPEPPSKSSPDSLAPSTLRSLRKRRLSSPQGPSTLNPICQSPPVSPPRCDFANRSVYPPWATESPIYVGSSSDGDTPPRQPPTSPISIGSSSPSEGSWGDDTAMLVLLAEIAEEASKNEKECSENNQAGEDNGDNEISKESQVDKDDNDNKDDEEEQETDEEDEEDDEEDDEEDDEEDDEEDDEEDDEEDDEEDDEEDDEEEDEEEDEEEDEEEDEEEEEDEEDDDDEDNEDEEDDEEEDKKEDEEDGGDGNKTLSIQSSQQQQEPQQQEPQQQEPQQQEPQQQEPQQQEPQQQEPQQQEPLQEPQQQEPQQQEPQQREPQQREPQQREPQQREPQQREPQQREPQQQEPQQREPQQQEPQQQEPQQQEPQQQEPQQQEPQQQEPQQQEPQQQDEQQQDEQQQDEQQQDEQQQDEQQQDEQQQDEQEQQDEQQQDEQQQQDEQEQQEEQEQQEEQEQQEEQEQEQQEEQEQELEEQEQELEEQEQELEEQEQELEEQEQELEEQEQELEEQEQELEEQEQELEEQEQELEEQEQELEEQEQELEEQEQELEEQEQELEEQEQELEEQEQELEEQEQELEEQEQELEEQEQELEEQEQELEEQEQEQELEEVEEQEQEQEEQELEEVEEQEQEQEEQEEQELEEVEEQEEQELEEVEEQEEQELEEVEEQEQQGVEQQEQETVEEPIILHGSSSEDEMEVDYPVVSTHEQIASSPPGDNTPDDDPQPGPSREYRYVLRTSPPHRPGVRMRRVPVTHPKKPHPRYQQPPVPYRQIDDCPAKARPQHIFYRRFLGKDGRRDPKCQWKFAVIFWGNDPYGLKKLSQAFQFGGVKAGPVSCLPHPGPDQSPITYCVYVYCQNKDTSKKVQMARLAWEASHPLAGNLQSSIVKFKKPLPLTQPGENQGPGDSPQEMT

[1] = target: T1, Apoptotic protease-activating factor 1 (Homo sapiens, UniProt O14727); assay: activation of Apaf-1 mediated apoptosis – fluorescent, uHTS hits, dose response (AID 588554); type: functional
T1 sequence (O14727 whole entry): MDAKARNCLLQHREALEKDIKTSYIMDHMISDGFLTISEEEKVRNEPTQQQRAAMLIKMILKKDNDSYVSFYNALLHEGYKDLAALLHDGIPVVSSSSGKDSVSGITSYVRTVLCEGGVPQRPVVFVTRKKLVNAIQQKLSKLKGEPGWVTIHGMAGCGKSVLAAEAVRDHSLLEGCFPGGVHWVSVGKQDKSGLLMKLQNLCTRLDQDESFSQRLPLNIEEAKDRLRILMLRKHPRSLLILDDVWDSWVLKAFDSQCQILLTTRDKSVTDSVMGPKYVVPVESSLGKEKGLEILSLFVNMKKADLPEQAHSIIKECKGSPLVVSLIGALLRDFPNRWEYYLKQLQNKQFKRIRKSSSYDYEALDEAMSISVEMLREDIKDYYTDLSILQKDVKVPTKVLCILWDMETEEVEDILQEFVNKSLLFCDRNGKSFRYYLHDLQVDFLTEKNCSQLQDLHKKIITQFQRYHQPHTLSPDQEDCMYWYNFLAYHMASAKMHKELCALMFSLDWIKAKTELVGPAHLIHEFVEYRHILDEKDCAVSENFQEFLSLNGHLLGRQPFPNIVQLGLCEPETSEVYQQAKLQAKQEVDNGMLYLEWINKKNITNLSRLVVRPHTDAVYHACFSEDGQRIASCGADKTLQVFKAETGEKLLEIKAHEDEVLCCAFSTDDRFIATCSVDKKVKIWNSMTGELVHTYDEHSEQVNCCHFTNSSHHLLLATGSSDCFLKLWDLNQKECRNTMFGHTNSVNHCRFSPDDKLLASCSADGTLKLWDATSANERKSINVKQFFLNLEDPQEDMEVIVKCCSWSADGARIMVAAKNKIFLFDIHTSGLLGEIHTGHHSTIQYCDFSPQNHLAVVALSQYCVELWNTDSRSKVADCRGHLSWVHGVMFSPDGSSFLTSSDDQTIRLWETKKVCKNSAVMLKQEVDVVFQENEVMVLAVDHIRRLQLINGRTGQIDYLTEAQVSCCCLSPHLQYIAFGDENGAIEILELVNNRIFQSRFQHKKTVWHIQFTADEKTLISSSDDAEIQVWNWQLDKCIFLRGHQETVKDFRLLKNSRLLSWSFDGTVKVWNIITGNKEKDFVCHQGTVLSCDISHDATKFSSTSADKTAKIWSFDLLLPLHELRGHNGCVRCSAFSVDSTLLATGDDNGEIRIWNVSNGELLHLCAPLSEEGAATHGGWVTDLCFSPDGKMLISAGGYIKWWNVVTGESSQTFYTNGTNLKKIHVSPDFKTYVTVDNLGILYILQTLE

[2] = target: T2, Carboxy-terminal domain RNA polymerase II polypeptide A small phosphatase 1 (Homo sapiens, UniProt Q9GZU7); assay: inhibitors of CTDSP1, concentration-response testing, biochemical assay, absorbance-based, actives from ultra-high-throughput screening (AID 540297); type: functional
T2 sequence (Q9GZU7 whole entry): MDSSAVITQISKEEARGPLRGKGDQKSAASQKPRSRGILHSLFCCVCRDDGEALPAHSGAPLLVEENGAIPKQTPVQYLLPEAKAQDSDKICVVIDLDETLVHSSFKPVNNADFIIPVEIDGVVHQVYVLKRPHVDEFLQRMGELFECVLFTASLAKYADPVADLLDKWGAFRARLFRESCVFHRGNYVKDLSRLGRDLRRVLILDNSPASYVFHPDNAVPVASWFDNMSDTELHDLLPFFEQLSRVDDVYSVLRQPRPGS

[3] = target: T3, Tyrosine-protein phosphatase non-receptor type 7 (Homo sapiens, UniProt P35236); assay: HTS HePTP Fluorescent Assay using OMFP substrate for In Vitro dose response studies. [Related pubchem assays (depositor defined):AID1059, AID1077, AID1784, AID2068, AID2085, AID435032, AID521]; type: functional
T3 sequence (P35236 whole entry): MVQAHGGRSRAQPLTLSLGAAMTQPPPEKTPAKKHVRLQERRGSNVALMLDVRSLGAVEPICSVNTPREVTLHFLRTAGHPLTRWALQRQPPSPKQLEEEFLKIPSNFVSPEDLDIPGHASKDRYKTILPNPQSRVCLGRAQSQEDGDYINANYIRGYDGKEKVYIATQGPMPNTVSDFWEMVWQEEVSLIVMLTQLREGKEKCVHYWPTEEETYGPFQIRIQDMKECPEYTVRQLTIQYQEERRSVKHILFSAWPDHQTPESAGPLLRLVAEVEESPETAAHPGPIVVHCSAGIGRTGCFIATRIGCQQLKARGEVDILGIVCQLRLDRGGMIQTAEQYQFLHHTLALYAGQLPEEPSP

[4] = target: DNA (cytosine-5)-methyltransferase 1 (Homo sapiens, UniProt P26358); assay: DNMT1 methyltransferase inhibitors, confirmation, biochemical, fluorescent molecular beacon (AID 602386); type: functional
Sequence of DNA (cytosine-5)-methyltransferase 1 (P26358 whole entry): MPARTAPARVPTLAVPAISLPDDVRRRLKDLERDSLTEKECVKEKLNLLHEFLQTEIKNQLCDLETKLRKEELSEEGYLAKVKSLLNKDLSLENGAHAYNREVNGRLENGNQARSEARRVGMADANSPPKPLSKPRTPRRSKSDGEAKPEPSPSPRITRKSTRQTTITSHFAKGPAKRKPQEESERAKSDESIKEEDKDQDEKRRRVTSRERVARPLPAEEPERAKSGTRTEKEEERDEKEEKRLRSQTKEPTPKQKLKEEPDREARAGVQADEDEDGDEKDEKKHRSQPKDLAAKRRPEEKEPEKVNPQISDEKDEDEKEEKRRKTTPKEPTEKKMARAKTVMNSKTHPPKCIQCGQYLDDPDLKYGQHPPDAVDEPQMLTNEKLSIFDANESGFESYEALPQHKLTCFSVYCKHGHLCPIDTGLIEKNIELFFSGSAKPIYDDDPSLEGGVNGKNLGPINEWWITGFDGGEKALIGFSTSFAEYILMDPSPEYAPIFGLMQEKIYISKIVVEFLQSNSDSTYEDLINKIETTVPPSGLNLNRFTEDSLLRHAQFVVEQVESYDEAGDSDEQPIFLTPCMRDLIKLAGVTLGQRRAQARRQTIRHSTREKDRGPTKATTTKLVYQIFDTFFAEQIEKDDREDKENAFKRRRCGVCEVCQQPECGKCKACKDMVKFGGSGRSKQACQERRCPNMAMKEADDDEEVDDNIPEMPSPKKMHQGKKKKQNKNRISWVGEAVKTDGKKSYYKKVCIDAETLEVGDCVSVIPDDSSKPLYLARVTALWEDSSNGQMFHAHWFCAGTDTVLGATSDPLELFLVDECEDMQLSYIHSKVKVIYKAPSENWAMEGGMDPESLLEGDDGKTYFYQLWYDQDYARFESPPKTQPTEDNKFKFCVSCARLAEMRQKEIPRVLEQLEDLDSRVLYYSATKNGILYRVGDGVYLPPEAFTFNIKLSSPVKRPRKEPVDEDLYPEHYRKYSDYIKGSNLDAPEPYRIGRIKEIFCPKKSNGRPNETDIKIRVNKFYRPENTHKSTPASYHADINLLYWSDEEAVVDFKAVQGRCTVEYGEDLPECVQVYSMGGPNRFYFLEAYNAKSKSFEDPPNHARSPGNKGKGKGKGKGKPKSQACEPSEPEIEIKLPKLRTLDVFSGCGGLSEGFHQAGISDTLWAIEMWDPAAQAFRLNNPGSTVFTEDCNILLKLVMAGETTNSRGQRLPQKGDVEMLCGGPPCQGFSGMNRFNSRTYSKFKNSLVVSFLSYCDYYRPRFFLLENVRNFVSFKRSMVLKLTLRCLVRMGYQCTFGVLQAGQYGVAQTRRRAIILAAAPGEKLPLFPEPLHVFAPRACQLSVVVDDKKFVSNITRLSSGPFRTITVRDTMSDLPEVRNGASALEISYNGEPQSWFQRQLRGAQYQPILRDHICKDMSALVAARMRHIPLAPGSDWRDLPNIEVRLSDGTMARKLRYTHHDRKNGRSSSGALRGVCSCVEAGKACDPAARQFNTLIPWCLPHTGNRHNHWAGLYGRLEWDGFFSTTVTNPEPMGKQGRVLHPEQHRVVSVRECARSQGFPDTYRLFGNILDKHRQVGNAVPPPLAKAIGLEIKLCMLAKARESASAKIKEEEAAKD

[5] = target: T4, Tyrosine-protein phosphatase non-receptor type 22 (Homo sapiens, UniProt Q9Y2R2); type: functional
T4 sequence (Q9Y2R2 whole entry): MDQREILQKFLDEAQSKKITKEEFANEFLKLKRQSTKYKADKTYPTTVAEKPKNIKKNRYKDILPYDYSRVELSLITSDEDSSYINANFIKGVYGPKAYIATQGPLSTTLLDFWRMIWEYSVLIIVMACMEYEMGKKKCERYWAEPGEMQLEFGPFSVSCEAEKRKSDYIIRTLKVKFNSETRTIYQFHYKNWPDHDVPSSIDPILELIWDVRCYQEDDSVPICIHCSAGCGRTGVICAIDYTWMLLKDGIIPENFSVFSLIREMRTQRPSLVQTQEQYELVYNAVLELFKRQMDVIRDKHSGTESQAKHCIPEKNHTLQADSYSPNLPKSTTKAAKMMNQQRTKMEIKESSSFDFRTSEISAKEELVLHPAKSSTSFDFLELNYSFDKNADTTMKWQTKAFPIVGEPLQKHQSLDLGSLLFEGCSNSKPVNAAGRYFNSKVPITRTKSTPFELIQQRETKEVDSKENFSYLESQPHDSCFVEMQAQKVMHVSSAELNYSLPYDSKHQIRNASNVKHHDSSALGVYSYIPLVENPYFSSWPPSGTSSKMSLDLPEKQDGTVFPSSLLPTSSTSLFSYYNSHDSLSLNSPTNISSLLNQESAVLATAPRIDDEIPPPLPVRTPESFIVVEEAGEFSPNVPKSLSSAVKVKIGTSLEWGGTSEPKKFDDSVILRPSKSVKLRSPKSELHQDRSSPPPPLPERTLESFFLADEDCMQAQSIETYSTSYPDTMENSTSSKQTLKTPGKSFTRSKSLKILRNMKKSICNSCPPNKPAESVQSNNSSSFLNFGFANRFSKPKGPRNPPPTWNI

[6] = target: T4, Tyrosine-protein phosphatase non-receptor type 22; assay: inhibitors of LYP phosphatase, biochemical, fluorescence intensity, uHTS (AID 1779)
[7] = target: T4, Tyrosine-protein phosphatase non-receptor type 22; type: functional; remark: listed apart in the source
[8] = target: Serine/threonine-protein phosphatase (Homo sapiens, UniProt Q9BPW0); assay: Counterscreen for inhibitors of PP1: fluorescence-based biochemical high throughput dose response assay to identify inhibitors of Protein Phosphatase 5 (PP5). [Related pubchem assays: 2034 (Summary (PP5 inhibitors)), 1987 (PP5 inhibitors in singlate), 2235 (PP1 inhibitors in singlate)]
Sequence of Serine/threonine-protein phosphatase (Q9BPW0 whole entry): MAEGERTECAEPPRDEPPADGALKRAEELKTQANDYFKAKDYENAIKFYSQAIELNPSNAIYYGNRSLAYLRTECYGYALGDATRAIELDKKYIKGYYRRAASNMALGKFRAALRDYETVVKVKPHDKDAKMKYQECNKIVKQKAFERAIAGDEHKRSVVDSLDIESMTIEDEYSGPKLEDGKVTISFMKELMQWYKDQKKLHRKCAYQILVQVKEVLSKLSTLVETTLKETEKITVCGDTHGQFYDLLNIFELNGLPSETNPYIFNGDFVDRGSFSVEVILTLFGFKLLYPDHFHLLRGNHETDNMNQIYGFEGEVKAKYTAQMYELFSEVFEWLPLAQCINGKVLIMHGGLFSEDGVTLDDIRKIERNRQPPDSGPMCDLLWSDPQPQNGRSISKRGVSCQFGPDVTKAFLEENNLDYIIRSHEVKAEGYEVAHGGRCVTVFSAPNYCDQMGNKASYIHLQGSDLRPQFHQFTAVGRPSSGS

[9] = target: Beta-adrenergic receptor kinase 1 (Homo sapiens, UniProt P25098); assay: aptamer displacement from bead-bound GRK2 – biochemical, cherry pick 1, bead flow cytometry, dose response (AID 504500)
Sequence of Beta-adrenergic receptor kinase 1 (P25098 whole entry): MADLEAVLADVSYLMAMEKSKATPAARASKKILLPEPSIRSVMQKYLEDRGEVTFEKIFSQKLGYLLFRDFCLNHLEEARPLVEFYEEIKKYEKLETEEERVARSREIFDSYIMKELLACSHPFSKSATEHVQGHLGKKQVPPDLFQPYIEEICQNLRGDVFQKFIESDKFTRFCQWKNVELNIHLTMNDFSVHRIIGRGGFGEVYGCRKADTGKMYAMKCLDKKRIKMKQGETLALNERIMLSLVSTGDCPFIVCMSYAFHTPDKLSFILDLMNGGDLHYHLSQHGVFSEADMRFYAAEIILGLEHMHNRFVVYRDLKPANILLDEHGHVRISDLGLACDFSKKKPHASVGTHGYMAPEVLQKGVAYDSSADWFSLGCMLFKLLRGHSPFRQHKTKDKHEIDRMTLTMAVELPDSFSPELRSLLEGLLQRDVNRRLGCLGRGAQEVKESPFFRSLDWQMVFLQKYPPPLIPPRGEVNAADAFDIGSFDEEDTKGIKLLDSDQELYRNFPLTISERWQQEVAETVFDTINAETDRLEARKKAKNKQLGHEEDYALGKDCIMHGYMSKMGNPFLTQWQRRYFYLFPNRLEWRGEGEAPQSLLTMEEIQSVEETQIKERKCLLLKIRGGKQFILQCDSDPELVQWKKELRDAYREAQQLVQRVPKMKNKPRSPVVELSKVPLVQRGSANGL

[10] = target: T3, Tyrosine-protein phosphatase non-receptor type 7; type: functional
[11] = target: Serine/threonine-protein phosphatase PP1-alpha catalytic subunit (Homo sapiens, UniProt P62136); assay: PP1 phosphatase inhibitors, dose response, biochemical, fluorescence (AID 2403);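 note: phosphatase turnover of OMFP into fluorescent 3-O-methylfluorescein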
Sequence of Serine/threonine-protein phosphatase PP1-alpha catalytic subunit (P62136 whole entry): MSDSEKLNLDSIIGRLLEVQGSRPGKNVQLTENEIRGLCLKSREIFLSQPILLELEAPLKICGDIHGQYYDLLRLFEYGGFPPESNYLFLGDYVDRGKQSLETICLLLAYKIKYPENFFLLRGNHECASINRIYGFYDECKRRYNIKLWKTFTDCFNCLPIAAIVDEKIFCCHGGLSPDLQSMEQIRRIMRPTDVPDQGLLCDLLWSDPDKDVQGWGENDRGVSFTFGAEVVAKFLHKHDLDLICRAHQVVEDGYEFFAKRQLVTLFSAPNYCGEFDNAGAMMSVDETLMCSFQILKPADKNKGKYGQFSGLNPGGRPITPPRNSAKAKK

[12] = target: T4, Tyrosine-protein phosphatase non-receptor type 22; assay: LYP1 Fluorescent Assay using OMFP substrate for In Vitro dose response studies. [Related pubchem assays (depositor defined):AID1779, AID1784, AID435024]
DNA topoisomerase = DNA topoisomerase (Yersinia pestis, UniProt A0A2S9PM60); assay: Y. pestis Topo-I inhibitors, cleavage product readout, dose response, biochemical, cherry-pick (AID 588525)
Sequence of DNA topoisomerase (A0A2S9PM60 whole entry): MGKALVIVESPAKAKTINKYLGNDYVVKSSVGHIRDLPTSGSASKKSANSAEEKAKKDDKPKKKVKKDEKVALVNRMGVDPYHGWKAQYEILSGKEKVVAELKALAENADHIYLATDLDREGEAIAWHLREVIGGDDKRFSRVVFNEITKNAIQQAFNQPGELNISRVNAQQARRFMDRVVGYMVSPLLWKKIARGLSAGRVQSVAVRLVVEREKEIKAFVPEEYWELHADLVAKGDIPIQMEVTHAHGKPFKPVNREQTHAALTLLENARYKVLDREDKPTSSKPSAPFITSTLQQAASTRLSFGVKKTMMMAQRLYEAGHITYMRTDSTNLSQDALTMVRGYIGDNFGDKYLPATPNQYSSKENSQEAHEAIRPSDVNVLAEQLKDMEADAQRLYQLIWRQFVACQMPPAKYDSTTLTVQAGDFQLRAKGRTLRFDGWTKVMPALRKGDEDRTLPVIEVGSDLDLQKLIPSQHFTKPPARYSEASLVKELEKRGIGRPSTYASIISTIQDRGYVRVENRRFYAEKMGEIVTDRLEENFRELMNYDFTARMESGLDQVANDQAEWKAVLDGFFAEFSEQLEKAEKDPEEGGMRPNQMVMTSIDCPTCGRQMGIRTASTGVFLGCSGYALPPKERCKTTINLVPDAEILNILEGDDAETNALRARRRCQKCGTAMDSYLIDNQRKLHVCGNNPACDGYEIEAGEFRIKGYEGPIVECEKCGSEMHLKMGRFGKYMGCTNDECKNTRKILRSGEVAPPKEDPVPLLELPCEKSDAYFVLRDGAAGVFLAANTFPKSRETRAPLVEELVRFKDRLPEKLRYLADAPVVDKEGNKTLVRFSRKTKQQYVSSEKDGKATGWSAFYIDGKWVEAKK

Compound	AC50 (ORF 73)	EC50 [1]	IC50 [2]	IC50 [3]	IC50 [4]	IC50 [5]	IC50 [6]	IC50 [7]	IC50 [8]	EC50 [9]	IC50 [10]	IC50 [11]	IC50 [12]	AC50 (DNA topoisomerase)
CC(C)(CS(=O)(=O)[O-])NC(=O)CC[N+](C)(C)CCO	39.8 µM (active)	1.16 µM (active)	0.453 µM (active)	28.6 µM (active)	3.6 µM (active)	5.97 µM (active)	10.9 µM (active)	4.08 µM (active)	> 67 µM (not active)	0.67 µM (active)	17.9 µM (active)	2.46 µM (active)	4.28 µM (active)	–
CCOc1ccc(N2C(=O)CC(N3CCN(c4ccc(C(=O)c5ccncc5)cc4)CC3)C2=O)cc1 (centres undefined)	–	–	–	–	–	–	–	–	–	–	–	–	–	10.6 µM (active)
